Experimental data from ChEMBL document CHEMBL1201861, “Genomics of Drug Sensitity in Cancer screening data, Wellcome Trust Sanger Institute”.

Assays:
Experiment in all cases: cells
TE-8 = type: functional, cell-based, Homo sapiens; settings: Homo sapiens, TE-8;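 also: growth inhibition of TE-8 cells, measured with a cell viability readout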
Description: SANGER: Inhibition of human TE-8 cell growth in a cell viability assay.

RCC10RGB = type: functional, cell-based, Homo sapiens; settings: Homo sapiens, RCC10RGB;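 also: growth inhibition of human RCC10RGB cells, read out by a cell viability assay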
Description: SANGER: Inhibition of human RCC10RGB cell growth in a cell viability assay.

HT-144 = type: functional, cell-based, Homo sapiens; settings: Homo sapiens, HT-144
Description: SANGER: Inhibition of human HT-144 cell growth in a cell viability assay.

JVM-2 = type: functional, cell-based, Homo sapiens; settings: Homo sapiens, JVM-2;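 also: growth inhibition of JVM-2 cells determined by a cell viability assay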
Description: SANGER: Inhibition of human JVM-2 cell growth in a cell viability assay.

DOHH-2 = type: functional, cell-based, Homo sapiens; settings: Homo sapiens, DOHH-2;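 also: growth inhibition of human DOHH-2 cells, read out with a cell viability assay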
Description: SANGER: Inhibition of human DOHH-2 cell growth in a cell viability assay.

EKVX = type: functional, cell-based, Homo sapiens; settings: Homo sapiens, EKVX;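 also: growth inhibition of human EKVX cells, read out with a cell viability assay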
Description: SANGER: Inhibition of human EKVX cell growth in a cell viability assay.

LOX IMVI = type: functional, cell-based, Homo sapiens; settings: Homo sapiens, LOX IMVI
Description: SANGER: Inhibition of human LOXIMVI cell growth in a cell viability assay.

TE-10 = type: functional, cell-based, Homo sapiens; settings: Homo sapiens, TE-10;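 also: growth inhibition of TE-10 cells, measured by a cell viability assay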
Description: SANGER: Inhibition of human TE-10 cell growth in a cell viability assay.

SNU-5 = type: functional, cell-based, Homo sapiens; settings: Homo sapiens, SNU-5;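 also: cell viability readout used to measure growth inhibition in human NCI-SNU-5 cells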
Description: SANGER: Inhibition of human NCI-SNU-5 cell growth in a cell viability assay.

BV-173 = type: functional, cell-based, Homo sapiens; settings: Homo sapiens, BV-173
Description: SANGER: Inhibition of human BV-173 cell growth in a cell viability assay.

OMC-1 = type: functional, cell-based, Homo sapiens; settings: Homo sapiens, OMC-1;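 also: growth inhibition of the OMC-1 cell line, measured by a cell viability assay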
Description: SANGER: Inhibition of human OMC-1 cell growth in a cell viability assay.

KARPAS-45 = type: functional, cell-based, Homo sapiens; settings: Homo sapiens, KARPAS-45;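 also: inhibition of cell line growth, read out through a viability assay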
Description: SANGER: Inhibition of human KARPAS-45 cell growth in a cell viability assay.

PSN1 = type: functional, cell-based, Homo sapiens; settings: Homo sapiens, PSN1;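 also: suppression of growth of human PSN1 cells, read out by a cell viability assay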
Description: SANGER: Inhibition of human PSN1 cell growth in a cell viability assay.

NCI-H69 = type: functional, cell-based, Homo sapiens; settings: Homo sapiens, NCI-H69;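 also: growth inhibition of the cell line, read out with a cell viability assay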
Description: SANGER: Inhibition of human NCI-H69 cell growth in a cell viability assay.

DJM-1 = type: functional, cell-based, Homo sapiens; settings: Homo sapiens, DJM-1;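 also: growth inhibition of human DJM-1 cells, read out by a cell viability assay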
HT = type: functional, cell-based, Homo sapiens; settings: Homo sapiens, HT
EW-1 = type: functional, cell-based, Homo sapiens; settings: Homo sapiens, EW-1
Description: SANGER: Inhibition of human EW-1 cell growth in a cell viability assay.

VA-ES-BJ = type: functional, cell-based, Homo sapiens; settings: Homo sapiens, VA-ES-BJ;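 also: growth inhibition of the VA-ES-BJ cell line, read out by a cell viability assay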
Description: SANGER: Inhibition of human VA-ES-BJ cell growth in a cell viability assay.

NCI-H82 = type: functional, cell-based, Homo sapiens; settings: Homo sapiens, NCI-H82;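 also: growth inhibition of NCI-H82 cells, measured with a cell viability readout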
Description: SANGER: Inhibition of human NCI-H82 cell growth in a cell viability assay.

NKM-1 = type: functional, cell-based, Homo sapiens; settings: Homo sapiens, NKM-1;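 also: growth inhibition of NKM-1 cells, read out with a cell viability assay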
Description: SANGER: Inhibition of human NKM-1 cell growth in a cell viability assay.

NCI-H2126 = type: functional, cell-based, Homo sapiens; settings: Homo sapiens, NCI-H2126;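 also: growth inhibition of the cancer cell line, determined with a cell viability readout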
ALL-PO = type: functional, cell-based, Homo sapiens; settings: Homo sapiens, ALL-PO;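 also: growth inhibition of ALL-PO cells, read out by a cell viability assay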
Description: SANGER: Inhibition of human ALL-PO cell growth in a cell viability assay.

SK-MEL-1 = type: functional, cell-based, Homo sapiens; settings: Homo sapiens, SK-MEL-1;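 also: growth inhibition of human SK-MEL-1 cells, read out by a cell viability assay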
Description: SANGER: Inhibition of human SK-MEL-1 cell growth in a cell viability assay.

NEC8 = type: functional, cell-based, Homo sapiens; settings: Homo sapiens, NEC8;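 also: growth inhibition of human NEC8 cells, read out by a cell viability assay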
Description: SANGER: Inhibition of human NEC8 cell growth in a cell viability assay.

EW-11 = type: functional, cell-based, Homo sapiens; settings: Homo sapiens, EW-11;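 also: growth inhibition of human EW-11 cells, measured with a cell viability assay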
Description: SANGER: Inhibition of human EW-11 cell growth in a cell viability assay.

RPMI-8226 = type: functional, cell-based, Homo sapiens; settings: Homo sapiens, RPMI-8226
Description: SANGER: Inhibition of human RPMI-8226 cell growth in a cell viability assay.

HL-60 = type: functional, cell-based, Homo sapiens; settings: Homo sapiens, HL-60;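 also: growth inhibition of human HL-60 cells, read out with a cell viability assay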
Description: SANGER: Inhibition of human HL-60 cell growth in a cell viability assay.

KINGS-1 = type: functional, cell-based, Homo sapiens; settings: Homo sapiens, KINGS-1;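 also: cell viability assay measuring suppression of KINGS-1 cell growth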
Description: SANGER: Inhibition of human KINGS-1 cell growth in a cell viability assay.

D283 Med = type: functional, cell-based, Homo sapiens; settings: Homo sapiens, D283 Med
Description: SANGER: Inhibition of human D-283MED cell growth in a cell viability assay.

SK-UT-1 = type: functional, cell-based, Homo sapiens; settings: Homo sapiens, SK-UT-1;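 also: growth inhibition of SK-UT-1 cells, measured by a cell viability assay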
Description: SANGER: Inhibition of human SK-UT-1 cell growth in a cell viability assay.

HD-MY-Z = type: functional, cell-based, Homo sapiens; settings: Homo sapiens, HD-MY-Z;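 also: growth inhibition of HD-MY-Z cells, read out with a cell viability assay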
Description: SANGER: Inhibition of human HD-MY-Z cell growth in a cell viability assay.

NCI-H1581 = type: functional, cell-based, Homo sapiens; settings: Homo sapiens, NCI-H1581;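 also: cell growth inhibition read out by a viability assay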
Description: SANGER: Inhibition of human NCI-H1581 cell growth in a cell viability assay.

Calu-6 = type: functional, cell-based, Homo sapiens; settings: Homo sapiens, Calu-6;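 also: growth of human Calu-6 cells, read out by a cell viability assay, IC50 marking inhibition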
Description: SANGER: Inhibition of human Calu-6 cell growth in a cell viability assay.

SW 954 = type: functional, cell-based, Homo sapiens; settings: Homo sapiens, SW 954;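 also: growth inhibition of SW954 human cancer cells, read out as cell viability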
Description: SANGER: Inhibition of human SW954 cell growth in a cell viability assay.

Lu-65 = type: functional, cell-based, Homo sapiens; settings: Homo sapiens, Lu-65;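 also: growth inhibition of Lu-65 cancer cells, read out by a cell viability assay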
Description: SANGER: Inhibition of human LU-65 cell growth in a cell viability assay.

A3-KAW = type: functional, cell-based, Homo sapiens; settings: Homo sapiens, A3-KAW;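 also: growth inhibition of human A3-KAW cells, read out with a cell viability assay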
NCI-H23 = type: functional, cell-based, Homo sapiens; settings: Homo sapiens, NCI-H23;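 also: cell viability assay measuring growth inhibition of NCI-H23 cells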
Description: SANGER: Inhibition of human NCI-H23 cell growth in a cell viability assay.

SBC-1 = type: functional, cell-based, Homo sapiens; settings: Homo sapiens, SBC-1;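 also: cell viability assay measuring growth inhibition of the SBC-1 cell line, IC50 being the concentration that halves growth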
Description: SANGER: Inhibition of human SBC-1 cell growth in a cell viability assay.

MEG-01 = type: functional, cell-based, Homo sapiens; settings: Homo sapiens, MEG-01;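 also: growth inhibition of MEG-01 cells, read out by a cell viability assay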
Description: SANGER: Inhibition of human MEG-01 cell growth in a cell viability assay.

TGBC1TKB = type: functional, cell-based, Homo sapiens; settings: Homo sapiens, TGBC1TKB;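 also: growth inhibition of TGBC1TKB cells, read out by a cell viability assay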
Description: SANGER: Inhibition of human TGBC1TKB cell growth in a cell viability assay.

NCI-H446 = type: functional, cell-based, Homo sapiens; settings: Homo sapiens, NCI-H446;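 also: growth inhibition of NCI-H446 cells determined by a cell viability assay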
Description: SANGER: Inhibition of human NCI-H446 cell growth in a cell viability assay.

MZ2-MEL = type: functional, cell-based, Homo sapiens; settings: Homo sapiens, MZ2-MEL;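 also: growth inhibition of MZ2-MEL cells read out with a cell viability assay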
Description: SANGER: Inhibition of human MZ2-MEL cell growth in a cell viability assay.

NCI-H1155 = type: functional, cell-based, Homo sapiens; settings: Homo sapiens, NCI-H1155;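 also: cell growth inhibition measured by a viability assay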
Description: SANGER: Inhibition of human NCI-H1155 cell growth in a cell viability assay.

P30-OHK = type: functional, cell-based, Homo sapiens; settings: Homo sapiens, P30-OHK;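 also: growth inhibition of the P30-OHK cell line, read out with a cell viability assay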
Description: SANGER: Inhibition of human P30-OHK cell growth in a cell viability assay.

A388 = type: functional, cell-based; settings: Homo sapiens;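 also: growth inhibition of human A388 cells, read out with a cell viability assay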
Description: SANGER: Inhibition of human A388 cell growth in a cell viability assay.

NCI-H1092 = type: functional, cell-based, Homo sapiens; settings: Homo sapiens, NCI-H1092;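 also: cell growth inhibition measured with a cell viability assay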
Description: SANGER: Inhibition of human NCI-H1092 cell growth in a cell viability assay.

CTB-1 = type: functional, cell-based, Homo sapiens; settings: Homo sapiens, CTB-1
Description: SANGER: Inhibition of human CTB-1 cell growth in a cell viability assay.

KNS-42 = type: functional, cell-based; settings: Homo sapiens;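 also: growth inhibition of KNS-42 cells, read out with a cell viability assay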
Description: SANGER: Inhibition of human KNS-42 cell growth in a cell viability assay.

SK-N-DZ = type: functional, cell-based, Homo sapiens; settings: Homo sapiens, SK-N-DZ;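 also: growth inhibition of the cancer cell line, read out through a viability assay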
Description: SANGER: Inhibition of human SK-N-DZ cell growth in a cell viability assay.

SMILES: CCCCCCCCCCCC1=C(O)C(=O)C=C(O)C1=O [EMBELIN]
- IC50 (TE-8): 11 µM
- IC50 (RCC10RGB): > 32 µM
- IC50 (HT-144): 8.74 µM
- IC50 (JVM-2): > 32 µM
- IC50 (DOHH-2): 7.57 µM
- IC50 (EKVX): > 32 µM
- IC50 (LOX IMVI): 17.5 µM
- IC50 (TE-10): 13.3 µM
- IC50 (SNU-5): > 32 µM
- IC50 (BV-173): > 32 µM
- IC50 (OMC-1): 12.1 µM
- IC50 (KARPAS-45): 15.6 µM
- IC50 (PSN1): 5.41 µM
- IC50 (NCI-H69): > 32 µM
- IC50 (DJM-1): 8.8 µM
- IC50 (HT): 5.51 µM
- IC50 (EW-1): 28.6 µM
- IC50 (VA-ES-BJ): 10.7 µM
- IC50 (NCI-H82): > 32 µM
- IC50 (NKM-1): > 32 µM
- IC50 (NCI-H2126): 27.9 µM
- IC50 (ALL-PO): 3.65 µM
- IC50 (SK-MEL-1): > 32 µM
- IC50 (NEC8): 6.89 µM
- IC50 (EW-11): > 32 µM
- IC50 (RPMI-8226): 13.7 µM
- IC50 (HL-60): 8.85 µM
- IC50 (KINGS-1): > 32 µM
- IC50 (D283 Med): 14.7 µM
- IC50 (SK-UT-1): 4.69 µM
- IC50 (HD-MY-Z): 26.9 µM
- IC50 (NCI-H1581): > 32 µM
- IC50 (Calu-6): 4.83 µM
- IC50 (SW 954): 31.1 µM
- IC50 (Lu-65): > 32 µM
- IC50 (A3-KAW): 9.01 µM
- IC50 (NCI-H23): > 32 µM
- IC50 (SBC-1): 28.5 µM
- IC50 (MEG-01): 25.5 µM
- IC50 (TGBC1TKB): 11 µM
- IC50 (NCI-H446): > 32 µM
- IC50 (MZ2-MEL): 6.33 µM
- IC50 (NCI-H1155): > 32 µM
- IC50 (P30-OHK): 6.13 µM
- IC50 (A388): 6.7 µM
- IC50 (NCI-H1092): > 32 µM
- IC50 (CTB-1): 28 µM
- IC50 (KNS-42): > 32 µM
- IC50 (SK-N-DZ; read-out: IC50): > 32 µM

SMILES: Nc1ccccc1NC(=O)c1ccc(CNC(=O)OCc2cccnc2)cc1 [ENTINOSTAT]
- IC50 (TE-8): 0.369 µM
- IC50 (RCC10RGB): > 5 µM
- IC50 (HT-144): 0.303 µM
- IC50 (JVM-2): > 5 µM
- IC50 (DOHH-2): > 5 µM
- IC50 (EKVX): > 5 µM
- IC50 (LOX IMVI): 1.93 µM
- IC50 (TE-10): > 5 µM
- IC50 (SNU-5): > 5 µM
- IC50 (BV-173): 0.371 µM
- IC50 (OMC-1): > 5 µM
- IC50 (KARPAS-45): 0.278 µM
- IC50 (PSN1): 1.42 µM
- IC50 (NCI-H69): 0.801 µM
- IC50 (DJM-1): 3.6 µM
- IC50 (HT): 2.1 µM
- IC50 (EW-1): 2.77 µM
- IC50 (VA-ES-BJ): > 5 µM
- IC50 (NCI-H82): 1.63 µM
- IC50 (NKM-1): 0.109 µM
- IC50 (NCI-H2126): > 5 µM
- IC50 (ALL-PO): 0.0636 µM
- IC50 (SK-MEL-1): > 5 µM
- IC50 (NEC8): 0.135 µM
- IC50 (EW-11): > 5 µM
- IC50 (RPMI-8226): 3.14 µM
- IC50 (HL-60): 0.543 µM
- IC50 (KINGS-1): 4.31 µM
- IC50 (D283 Med): > 5 µM
- IC50 (SK-UT-1): 1.79 µM
- IC50 (HD-MY-Z): 1.75 µM
- IC50 (NCI-H1581): > 5 µM
- IC50 (Calu-6): > 5 µM
- IC50 (SW 954): 0.76 µM
- IC50 (Lu-65): 4.15 µM
- IC50 (A3-KAW): 0.176 µM
- IC50 (NCI-H23): > 5 µM
- IC50 (SBC-1): 1.43 µM
- IC50 (MEG-01): 1.22 µM
- IC50 (TGBC1TKB): > 5 µM
- IC50 (NCI-H446): > 5 µM
- IC50 (MZ2-MEL): > 5 µM
- IC50 (NCI-H1155): 3.71 µM
- IC50 (P30-OHK): > 5 µM
- IC50 (A388): 1.52 µM
- IC50 (NCI-H1092): 2.05 µM
- IC50 (CTB-1): 3.05 µM
- IC50 (KNS-42): > 5 µM
- IC50 (SK-N-DZ; read-out: IC50): 1.25 µM

SMILES: Cc1ccc(NC(=O)c2ccc(CN3CCN(C)CC3)cc2)cc1Nc1nccc(-c2cccnc2)n1 [IMATINIB]
- IC50 (TE-8): > 2 µM
- IC50 (RCC10RGB): > 2 µM
- IC50 (HT-144): > 2 µM
- IC50 (JVM-2): > 2 µM
- IC50 (DOHH-2): > 2 µM
- IC50 (EKVX): > 2 µM
- IC50 (LOX IMVI): > 2 µM
- IC50 (TE-10): > 2 µM
- IC50 (SNU-5): > 2 µM
- IC50 (BV-173): 0.187 µM
- IC50 (OMC-1): > 2 µM
- IC50 (KARPAS-45): > 2 µM
- IC50 (PSN1): > 2 µM
- IC50 (NCI-H69): > 2 µM
- IC50 (DJM-1): > 2 µM
- IC50 (HT): > 2 µM
- IC50 (EW-1): > 2 µM
- IC50 (VA-ES-BJ): > 2 µM
- IC50 (NCI-H82): > 2 µM
- IC50 (NKM-1): > 2 µM
- IC50 (NCI-H2126): > 2 µM
- IC50 (ALL-PO): > 2 µM
- IC50 (SK-MEL-1): > 2 µM
- IC50 (NEC8): > 2 µM
- IC50 (EW-11): > 2 µM
- IC50 (RPMI-8226): > 2 µM
- IC50 (HL-60): > 2 µM
- IC50 (KINGS-1): > 2 µM
- IC50 (D283 Med): > 2 µM
- IC50 (SK-UT-1): > 2 µM
- IC50 (HD-MY-Z): > 2 µM
- IC50 (NCI-H1581): > 2 µM
- IC50 (Calu-6): > 2 µM
- IC50 (SW 954): > 2 µM
- IC50 (Lu-65): > 2 µM
- IC50 (A3-KAW): > 2 µM
- IC50 (NCI-H23): > 2 µM
- IC50 (SBC-1): > 2 µM
- IC50 (MEG-01): 0.0892 µM
- IC50 (TGBC1TKB): > 2 µM
- IC50 (NCI-H446): > 2 µM
- IC50 (MZ2-MEL): > 2 µM
- IC50 (NCI-H1155): > 2 µM
- IC50 (P30-OHK): > 2 µM
- IC50 (A388): > 2 µM
- IC50 (NCI-H1092): > 2 µM
- IC50 (CTB-1): > 2 µM
- IC50 (KNS-42): > 2 µM
- IC50 (SK-N-DZ): > 2 µM
